Source: ChEMBL document CHEMBL5226309, “Synthetic RNA Modulators in Drug Discovery” (J Med Chem, 2021)

How the values were obtained:
[1] = Binding affinity to TAR mRNA assessed as dissociation constant by ITC analysis
[2] = Displacement of Tat from TAR mRNA by FRET analysis
[3] = Binding affinity to HIV-1 mRNA assessed as dissociation constant; parameters: species or system Human immunodeficiency virus 1
Hepatitis C virus = assay: Antiviral activity against HCV JFH-1 infected in human Huh-7 cells assessed as reduction in viral replication measured after 48 hrs by RT-PCR analysis relative to control; type: functional, Hepacivirus hominis; parameters: scale not given: the % may be the effect or the level left
[4] = Downregulation of miR-122 expression in human Huh-7 cells at 10 uM incubated for 48 hrs by RT-PCR analysis relative to control; type: functional
[5] = Binding affinity to Precursor microRNA-372 (unknown origin) assessed as dissociation constant
[6] = Inhibition of Precursor microRNA-372 (unknown origin) assessed as inhibition of Dicer-induced pre-miR-372 cleavage
HEK293 [7] = assay: Inhibition of miR-125a in human HEK293 cells assessed as increase in mature miR-21 level at 50 uM relative to control; type: cell-based
HEK293 [8] = assay: Inhibition of miR-125a in human HEK293 cells assessed as increase in pre miR-21 level at 50 uM relative to control; type: cell-based
HEK293 [9] = assay: Inhibition of miR-125a in human HEK293 cells relative to control; type: cell-based; settings: dose or concentration not given here
HeLa [10] = assay: Induction of apoptosis in human HeLa cells; type: functional
[11] = Induction of apoptosis in human U-87 MG cells; type: functional, U-87MG ATCC
[12] = Downregulation of alpha-Synuclein level in human SH-SY5Y cells at 5 uM relative to control; type: functional
A-375 = assay: Inhibition of miR-21 in human A-375 cells assessed as decrease in pre-miR-21 level at 50 nM relative to control; type: cell-based
MDA-MB-231 = assay: Inhibition of miR-21 in human MDA-MB-231 cells assessed as decrease in pre-miR-21 level at 50 nM relative to control; type: cell-based
[13] = Inhibition of miR-21 in human MDA-MB-231 cells; type: cell-based
A549 = assay: Inhibition of miR-21 in human A549 cells assessed as decrease in pre-miR-21 level at 50 nM relative to control; type: cell-based
HeLa [14] = assay: Induction of mRNA mediated IPRF in human HeLa cells assessed as increase in frame shifting efficiency at 10 uM in presence of F-VPK sequence relative to control; type: cell-based
[15] = Induction of mRNA mediated IPRF assessed as increase in frame shifting efficiency at 10 uM in presence of M2-VPK sequence relative to control
HeLa [16] = assay: Induction of mRNA mediated IPRF in human HeLa cells assessed as increase in frame shifting efficiency at 0.3 uM in presence of M2-FPK sequence relative to control; type: cell-based
[17] = Induction of mRNA mediated IPRF assessed as increase in frame shifting efficiency at 10 uM relative to control
HeLa [18] = assay: Induction of mRNA mediated IPRF in human HeLa cells assessed as increase in frame shifting efficiency at 0.3 uM in presence of M1-FPK sequence relative to control; type: cell-based
[19] = Inhibition of miR-21 (unknown origin) at 1 uM by differential scanning fluorometry analysis relative to control
[20] = Upregulation of miR-122 expression in human Huh-7 cells at 10 uM incubated for 48 hrs by RT-PCR analysis relative to control; type: functional
[21] = Binding affinity to miR-21 (unknown origin) at 5 uM by differential scanning fluorometry analysis relative to control
[22] = Binding affinity to miR-21 (unknown origin) assessed as dissociation constant

## CN(C)CCCn1cc(CNC(=O)c2csc(NC(=O)c3csc(NC(=O)c4csc(N)n4)n3)n2)nn1
[1]
  Kd: 6700 nM
[2]
  DC50: 10600 nM

## CC(=O)Nc1nc(-c2cccc(NC(=O)C(CNC(=O)[C@@H](N)CCCNC(=N)N)NC(=O)[C@@H](N)CCCNC(=N)N)c2)cs1 (some centres undefined)
[3]
  Kd: 2400 nM

## O=S(=O)(c1ccc2c(c1)CCCN2)N1CCC[C@@H]2CCCC[C@H]21
Hepatitis C virus
  Activity: 47%
[4]
  Activity: 45%

## CNc1ccc(C2c3ccccc3N=C(NCCCNCCCCNCCCN)C2(C)C)cc1 (centres undefined)
[5]
  Kd: 150 nM
[6]
  IC50: 1060 nM

## CCn1cc(C(=O)O)c(=O)c2cc(F)c(N3CCNCC3)nc21
HEK293 [7]
  inhibition: 150%
HEK293 [8]
  inhibition: 100%
HEK293 [9]
  inhibition: 100%

## C#CCNC(=O)c1ccc(NC(=O)c2ccccc2Br)cc1
HeLa [10]
  Activity: 24%
[11]
  Activity: 13%

## N#Cc1ccc(Nc2ccc(-c3nc4ccc(C#N)cc4[nH]3)cc2)cc1
[12]
  Activity: 40%

## CCCN(CC(=O)N(CCC)CC(=O)N(CCC)CC(=O)N(CC(=O)NCCOCCOCCOCCOc1ccc(/C=C2\SC(Nc3ccccc3)=C(C(=O)OCC)C2=O)cc1O)Cc1cn(CCCNC(=O)CCCOc2ccc(-c3nc4ccc(-c5ccc(N6CCN(C)CC6)cc5)cc4[nH]3)cc2)nn1)C(=O)CNCc1cn(CCCNC(=O)CCCOc2ccc(-c3nc4ccc(-c5ccc(N6CCN(C)CC6)cc5)cc4[nH]3)cc2)nn1
A-375
  inhibition: 50%
MDA-MB-231
  inhibition: 50%
[13]
  IC50: 50 nM
A549
  inhibition: 50%

## Cc1ccc2ccc(NC(=O)CCN(CCCCCCCCN(CCC(=O)Nc3ccc4ccc(C)nc4n3)CCC(=O)Nc3ccc4ccc(C)nc4n3)CCC(=O)Nc3ccc4ccc(C)nc4n3)nc2n1
HeLa [14]
  Activity: 21%
[15]
  Activity: 15%
HeLa [16]
  Activity: 0.32%
[17]
  Activity: 13%
HeLa [18]
  Activity: 0.35%

## COc1ccc(NCC(O)Cn2c3ccc(Br)cc3c3cc(Br)ccc32)cc1 (centres undefined)
[19]
  inhibition: 59%

## CCn1cc(C(=O)NCc2ccccc2)c(=O)c2cc(F)c(N3CCNCC3)nc21
HEK293 [9]
  inhibition: 30%

## CN(C)CCN1C(=O)c2cccc3cc(N)cc(c23)C1=O [AMONAFIDE]
[20]
  Activity: 450%

## NC[C@H]1O[C@H](O[C@H]2[C@H](O)[C@@H](O[C@H]3O[C@H](CNC(=O)CCC(=O)N[C@@H](Cc4ccccc4)C(=O)N[C@@H](CS)C(N)=O)[C@@H](O)[C@H](N)[C@H]3O)[C@H](N)C[C@@H]2N)[C@H](O)[C@@H](O)[C@@H]1O
[21]
  Activity: 140%
[22]
  Kd: 4.36 nM

## Cc1ccccc1NCC(O)Cn1c2ccc(Br)cc2c2cc(Br)ccc21 (centres undefined)
[19]
  inhibition: 47%

## NC[C@@H]1O[C@H](O[C@H]2[C@@H](O)[C@H](O[C@@H]3[C@@H](O)[C@H](N)C[C@H](N)[C@H]3O[C@H]3O[C@H](CN)[C@@H](O)[C@H](O)[C@H]3N)O[C@@H]2CSCCNC(=O)CCCCCn2cc(COc3ccc4c(c3)C(=O)N(O)C(=O)C4)nn2)[C@H](N)[C@@H](O)[C@@H]1O
[19]
  inhibition: 90%
